From US6432662B1, “Assay of peroxidase activity” (Pierce Chemical Company, priority 1999, dated 2002)

Key:
SA-HRP = SA-HRP (Armoracia rusticana, UniProt P00433); assay: Dot blot application of water soluble azine enhancers (Example 8); format: biochemical, horseradish
[1] = target: horseradish peroxidase labeled streptavidin (SA-HRP) (Armoracia rusticana, UniProt P00433); assay: Blot application comparing enhancer working solutions (Example 7); format: biochemical; conditions: after the 30 minute reexposure, enhancer: 1c […] (present invention) or 52 μM (low), 1b 52 μM, 3 13.5 μM
[2] = 50 μM enhancer with 1 mM Sodium Luminol
[3] = […] enhancer with 5 mM Sodium Luminol

Sequence of SA-HRP (P00433 31-338 limits assumed): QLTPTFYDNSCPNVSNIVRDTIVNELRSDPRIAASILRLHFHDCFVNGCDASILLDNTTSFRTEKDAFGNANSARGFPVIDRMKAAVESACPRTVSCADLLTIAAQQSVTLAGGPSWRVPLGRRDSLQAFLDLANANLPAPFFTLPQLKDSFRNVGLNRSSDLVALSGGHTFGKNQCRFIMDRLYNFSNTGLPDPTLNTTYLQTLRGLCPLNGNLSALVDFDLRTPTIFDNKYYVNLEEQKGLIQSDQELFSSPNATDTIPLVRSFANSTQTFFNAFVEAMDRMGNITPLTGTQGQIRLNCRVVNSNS
Sequence of SA-HRP (P22629 25-183 partner): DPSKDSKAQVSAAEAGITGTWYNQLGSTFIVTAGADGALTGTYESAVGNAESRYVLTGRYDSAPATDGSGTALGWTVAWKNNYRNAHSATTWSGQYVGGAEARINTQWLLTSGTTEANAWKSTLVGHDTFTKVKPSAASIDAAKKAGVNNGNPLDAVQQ
Sequence of horseradish peroxidase labeled streptavidin (SA-HRP) (P00433 31-338 limits assumed): as the sequence (P00433 31-338 limits assumed) above
Sequence of horseradish peroxidase labeled streptavidin (SA-HRP) (P22629 25-183 partner): as the sequence (P22629 25-183 partner) above

Row | Substance | Net Relative Intensity at 10 pg SA-HRP (SA-HRP; [2]) | Net Relative Intensity at 100 pg SA-HRP (SA-HRP; [2]) | Net Relative Intensity at 10 pg SA-HRP (SA-HRP; [3]) | Net Relative Intensity at 100 pg SA-HRP (SA-HRP; [3]) | Relative Intensity 2 pg SA-HRP [1] | Relative Intensity 5 pg SA-HRP [1] | Relative Intensity 20 pg SA-HRP [1]
1 | 2-chloro-10 (3 trimethyl amino propyl)-phenothiazonan bromide [Azine Enhancer 1d] | 0 | 0 | 225,632 | 311,048 | – | – | –
2 | Phenylindophenol/indophenol [Phenolic Enhancer 3] | – | – | – | – | 0 | 106,776 | 598,072
